Test results from PubChem BioAssay (NCI).
Values joined by “and” are separate entries in the source; they are usually repeats but may differ in a detail not shown here. Equal values may be shown once.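 Test compounds were applied to cells in 96-well plates for 48 hours at 5 doses. GI50 = concentration required for 50% inhibition of growth. The concentration for full growth arrest is given as TGI.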

The compounds below were run on MALME-3M melanoma (assay: NCI anticancer screen, dose series, 48 h).

Row | Structure (SMILES) | GI50 | TGI
1 | COc1ccc(-c2nsc3c2NC(=O)CC3c2cccc(OC)c2)cc1 (stereo not given) | 2.32 µM | 66.1 µM
2 | Cn1cnnc1Sc1c([N+](=O)[O-])ncn1C | – | 46.1 µM
3 | C=CCC1(CN(C)C)CC/C(=C\c2ccc(Cl)cc2)C1=O (stereo not given) | – | > 100 µM
4 | COC(=O)c1cc2c(s1)-c1nccc3c1c(nc1ccccc13)C2=O | 16.4 µM | 59.5 µM
5 | C[Si](C)(C)/C(I)=C/CO | – | 74.9 µM
6 | C[N+](C)(C)CC1CCC/C1=N\OC(=O)c1ccccc1 (stereo not given) | – | > 100 µM
7 | CC(=O)N1CCC(=O)/C(=C/c2ccccc2)C1 | – | > 100 µM
8 | C[Si](C)(C)/C(Br)=C\CCN1C(=O)CCC1=O | – | > 100 µM
9 | Cc1ccc(S(=O)OCc2c(C)c(C)c(COS(=O)c3ccc(C)cc3)c(C)c2C)cc1 (stereo not given) | – | > 100 µM
10 | C[C@]12CCC(=O)C=C1CC[C@@H]1C2CC[C@]2(C)Nc3[nH]ncc3CC12 (stereo not given in full) | – | > 100 µM
11 | COc1ccc2c(c1)c[n+](C)c1c3cc(OC)c(OC)cc3ccc21 | 3.71 µM and 12.4 µM | 14.9 µM and 26 µM
12 | C[C@H]1CN[C@@H]2[C@@H](C)[C@H]3[C@@H](C[C@H]4[C@@H]5CC[C@H]6C[C@@H](N)CC[C@]6(C)[C@H]5CC[C@]34C)O[C@@]2(O)C1 | – | 3.23 µM
13 | O=C1c2cc3c(cc2-c2c1c1cc(Cl)c(Cl)cc1c(=O)n2C[C@H](O)CO)OCO3 | 0.0154 µM | 0.156 µM
14 | CC(C)(C)[Si](C)(C)OC1C(=O)C[C@H]2CCCC[C@@H]12 (stereo not given in full) | – | > 100 µM
15 | CCN(CC)CCSc1c2ccccc2nc2c(OC)ccc(OC)c12 | – | > 60.9 µM
16 | [N-]=[N+]=N/C1=C/CCCCC(=O)C1 | – | > 100 µM
17 | CCc1c(Cl)c(C)cc(O)c1Cl | – | > 100 µM
18 | C=COC(=O)N[C@H]1CCc2cc(OC)c(OC)c(OC)c2-c2ccc(SC)c(=O)cc21 | – | > 100 µM
19 | Cc1ccc(NC(=O)CCc2nnc(N)o2)cc1 | – | > 100 µM
20 | S=c1[nH]c2c(Cl)c(Cl)c(Cl)c(Cl)c2[nH]1 | – | 38.5 µM
21 | CCOC(=O)C1SC(=Nc2ccccc2)N=C1C (stereo not given) | – | > 100 µM
22 | O=C1CCC(=O)c2c1c(O)c1ccncc1c2O | – | 29.4 µM
23 | C=CCN1CCC23c4c5ccc(O)c4OC2C(=NN=C2CCC4(O)C6Cc7ccc(O)c8c7C4(CCN6CC=C)C2O8)CCC3(O)C1C5 (stereo not given) | – | 33.4 µM
24 | COC(=O)C1=C(C(=O)OC)C2=S(SC3=C2CCCC3)S1 (stereo not given) | – | 71.1 µM
25 | COC(=O)c1ccc(-c2c(C#N)[n+](=O)c3cc(Cl)c(Cl)cc3n2[O-])cc1 | 20 µM | 44.3 µM
26 | CC1(C)CC(=O)CC(=Nc2ccc([N+](=O)[O-])cc2)C1 | – | > 100 µM
27 | C/C(=N\NC(=S)N1CCCCCC1)c1ccccn1 | 0.0966 µM | 1.17 µM and 1.72 µM
28 | Oc1ccc2ccccc2c1N=Nc1ccc(Br)cc1 | – | > 100 µM
29 | Cn1cc(-c2csc(-c3c[nH]c4ccc(Br)cc34)n2)c2cnccc21 | 2.23 µM | 3.96 µM

Each compound was assayed on A498 renal (assay: NCI anticancer screen, dose series, 48 h).

Row | Structure (SMILES) | GI50 | TGI
30 | COc1ccc(-c2nsc3c2NC(=O)CC3c2cccc(OC)c2)cc1 (stereo not given) | 0.408 µM | 5.02 µM
31 | Cn1cnnc1Sc1c([N+](=O)[O-])ncn1C | – | > 100 µM
32 | C=CCC1(CN(C)C)CC/C(=C\c2ccc(Cl)cc2)C1=O (stereo not given) | – | > 100 µM
33 | Cc1ccc2c(C3C(C#N)=C(N)Oc4cc5ccccc5cc43)cc(=O)oc2c1 (stereo not given) | 4.23 µM | 86.3 µM
34 | COC(=O)c1cc2c(s1)-c1nccc3c1c(nc1ccccc13)C2=O | > 100 µM | > 100 µM
35 | C[Si](C)(C)/C(I)=C/CO | – | > 100 µM
36 | C[N+](C)(C)CC1CCC/C1=N\OC(=O)c1ccccc1 (stereo not given) | – | > 100 µM
37 | CC(=O)N1CCC(=O)/C(=C/c2ccccc2)C1 | – | > 100 µM
38 | O=C(Nc1cc(C(F)(F)F)ccc1Cl)c1cccc(NC2=C(Cl)C(=O)N(Cc3ccccc3)C2=O)c1 | 28.5 µM | 92.9 µM
39 | CCCCCCCN=C(N)c1ccc(N2CCN(c3ccc(C(N)=NCCCCCCC)cc3)CC2)cc1 | 3.32 µM | > 100 µM
40 | C[Si](C)(C)/C(Br)=C\CCN1C(=O)CCC1=O | – | > 100 µM
41 | Cc1ccc(S(=O)OCc2c(C)c(C)c(COS(=O)c3ccc(C)cc3)c(C)c2C)cc1 (stereo not given) | – | > 100 µM
42 | C[C@]12CCC(=O)C=C1CC[C@@H]1C2CC[C@]2(C)Nc3[nH]ncc3CC12 (stereo not given in full) | – | > 100 µM
43 | COc1ccc2c(c1)c[n+](C)c1c3cc(OC)c(OC)cc3ccc21 | 2.02 µM and 19.7 µM | 6.85 µM and 57.7 µM
44 | O=[P@@]1(c2ccccc2)O[C@H](COCc2ccccc2)[C@@H](OCc2ccccc2)[C@H](OCc2ccccc2)[C@H]1NCc1ccccc1 | 2.39 µM | 8.99 µM
45 | C[C@H]1CN[C@@H]2[C@@H](C)[C@H]3[C@@H](C[C@H]4[C@@H]5CC[C@H]6C[C@@H](N)CC[C@]6(C)[C@H]5CC[C@]34C)O[C@@]2(O)C1 | – | 1.44 µM

Row | Structure (SMILES) | GI50 | TGI
46 | CSc1ccccc1C#C/C=C\C#Cc1ccccc1N | 4.18 µM | 14.5 µM
47 | O=C1c2cc3c(cc2-c2c1c1cc(Cl)c(Cl)cc1c(=O)n2C[C@H](O)CO)OCO3 | < 0.01 µM | 0.032 µM
48 | COc1ccc(/C(=C\C=C(C#N)C#N)Sc2nc3ccccc3s2)cc1 | 16.4 µM | 28.5 µM
49 | CC(C)(C)[Si](C)(C)OC1C(=O)C[C@H]2CCCC[C@@H]12 (stereo not given in full) | – | > 100 µM
50 | CCN(CC)CCSc1c2ccccc2nc2c(OC)ccc(OC)c12 | – | 32.5 µM
51 | CCOC(=O)c1ccc(N=Nc2cc(C(=O)OCC)ccc2O)cc1 | – | > 100 µM
52 | CCc1c(Cl)c(C)cc(O)c1Cl | – | 54.7 µM
53 | C=COC(=O)N[C@H]1CCc2cc(OC)c(OC)c(OC)c2-c2ccc(SC)c(=O)cc21 | – | 0.395 µM
54 | Cc1ccc(NC(=O)CCc2nnc(N)o2)cc1 | – | > 100 µM
55 | S=c1[nH]c2c(Cl)c(Cl)c(Cl)c(Cl)c2[nH]1 | – | 46.5 µM
56 | CCOC(=O)C1SC(=Nc2ccccc2)N=C1C (stereo not given) | – | > 100 µM
57 | C=CCN1CCC23c4c5ccc(O)c4OC2C(=NN=C2CCC4(O)C6Cc7ccc(O)c8c7C4(CCN6CC=C)C2O8)CCC3(O)C1C5 (stereo not given) | – | 41.5 µM
58 | COC(=O)c1ccc(-c2c(C#N)[n+](=O)c3cc(Cl)c(Cl)cc3n2[O-])cc1 | 38.6 µM | > 100 µM
59 | CC1(C)CC(=O)CC(=Nc2ccc([N+](=O)[O-])cc2)C1 | – | > 100 µM
60 | C/C(=N\NC(=S)N1CCCCCC1)c1ccccn1 | 0.163 µM | 2.59 µM and 1.57 µM
61 | Cn1cc(-c2csc(-c3c[nH]c4ccc(Br)cc34)n2)c2cnccc21 | 12.6 µM | > 100 µM

Each compound was assayed on OVCAR-5 ovarian (assay: NCI anticancer screen, dose series, 48 h).

Row | Structure (SMILES) | GI50 | TGI
62 | COc1ccc(-c2nsc3c2NC(=O)CC3c2cccc(OC)c2)cc1 (stereo not given) | 3.79 µM | > 100 µM
63 | Cn1cnnc1Sc1c([N+](=O)[O-])ncn1C | – | > 100 µM
64 | C=CCC1(CN(C)C)CC/C(=C\c2ccc(Cl)cc2)C1=O (stereo not given) | – | > 100 µM
65 | Cc1ccc2c(C3C(C#N)=C(N)Oc4cc5ccccc5cc43)cc(=O)oc2c1 (stereo not given) | 3.76 µM | > 100 µM
66 | COC(=O)c1cc2c(s1)-c1nccc3c1c(nc1ccccc13)C2=O | > 100 µM | > 100 µM
67 | C[Si](C)(C)/C(I)=C/CO | – | 69 µM
68 | CC(=O)N1CCC(=O)/C(=C/c2ccccc2)C1 | – | > 100 µM
69 | CCCCCCCN=C(N)c1ccc(N2CCN(c3ccc(C(N)=NCCCCCCC)cc3)CC2)cc1 | 0.849 µM | 29.3 µM
70 | C[Si](C)(C)/C(Br)=C\CCN1C(=O)CCC1=O | – | > 100 µM
71 | Cc1ccc(S(=O)OCc2c(C)c(C)c(COS(=O)c3ccc(C)cc3)c(C)c2C)cc1 (stereo not given) | – | > 100 µM
72 | C[C@]12CCC(=O)C=C1CC[C@@H]1C2CC[C@]2(C)Nc3[nH]ncc3CC12 (stereo not given in full) | – | > 100 µM
73 | COc1ccc2c(c1)c[n+](C)c1c3cc(OC)c(OC)cc3ccc21 | 1.52 µM and 11.8 µM | 5.17 µM and 25 µM
74 | O=[P@@]1(c2ccccc2)O[C@H](COCc2ccccc2)[C@@H](OCc2ccccc2)[C@H](OCc2ccccc2)[C@H]1NCc1ccccc1 | 3.51 µM | > 100 µM
75 | C[C@H]1CN[C@@H]2[C@@H](C)[C@H]3[C@@H](C[C@H]4[C@@H]5CC[C@H]6C[C@@H](N)CC[C@]6(C)[C@H]5CC[C@]34C)O[C@@]2(O)C1 | – | 19.6 µM
76 | CSc1ccccc1C#C/C=C\C#Cc1ccccc1N | 19.4 µM | 50 µM
77 | O=C1c2cc3c(cc2-c2c1c1cc(Cl)c(Cl)cc1c(=O)n2C[C@H](O)CO)OCO3 | 0.0184 µM | 0.955 µM
